Assay [1] has as its system fusion mediated by CD4, CXCR4, and the HIV-1 Env protein gp143. Kind of assay: CHO cell/Jurkat cell fusion assay, β-lactamase/CCF2 FRET readout. The class given is cell-based. The following applies: CHO gp143/HXB2 cells with Jurkat β-lactamase cells.
Procedure: Jurkat cells expressing β-lactamase (and which naturally express CXCR4 and CD4) were added to the CHO cells and incubated at 37° C. for a period sufficient to allow fusion to occur. The non-fused cells were removed by washing and the fluorogenic 1β-lactamase substrate CCF2/AM was added to the remaining cells. After a 1 hour incubation at room temperature, cell fusion was measured by fluorescence on a fluorescence plate reader. The ratio of emission of the donor dye (7-hydroxycoumarin) over emission of the acceptor dye (fluorescein) was measured.
Fusion is measured by observing the ratio of blue emission (460 nm) to green emission (530 nm). A high ratio indicates more fusion; a low ratio indicates less fusion.
CHO cells expressing gp143/HXB2 were plated in 96-well black, clear-bottom plates (Costar catalogue number 3603) at 5×10^4 cells per well in 200 μl of medium per well. The medium was Iscove's Modified Dulbecco's Medium (Gibco catalogue number 12440-046) supplemented with: 10% fetal bovine serum, G418 (1 mg/ml), 1 mg/ml penicillin/streptomycin (Gibco catalogue number 15140-122), glutamine (2 mM), and HT (ATCC 71-X).
The cells were incubated overnight at 37° C. […]
The plates were read on a Cytofluor II fluorescence plate reader (PerSeptive Biosystems) at 2 scans/cycle. […]
In assay [2] the test system is HIV-1. The conditions noted are these: SCID-hu mice; Datema et al., 1996; cited from earlier work.
Assay [3] has as its system HIV-1. The conditions noted are these: certain cultured cells; Cocchi et al., 1995; cited from earlier work.

These results are taken from US7029868B2, “Cell fusion assays using fluorescence resonance energy transfer” (Merck & Co., Inc., priority 2000, dated 2006).

Turning to “SDF-1: the natural ligand for CXCR4 (PeproTech Inc.); a chemokine”, the “inhibition of fusion (in words)” value in assay [1] is “dose-dependent inhibition of fusion”.

As for `c1cc(CN2CCCNCCNCCCNCC2)ccc1CN1CCCNCCNCCCNCC1` [AMD3100], the “inhibition of HIV-1 replication” value in the assay with HIV-1 [2] was “inhibits HIV-1 replication”.

Take RANTES: in the assay with HIV-1 [3], the “suppression of HIV-1 replication” value was “able to suppress HIV-1 replication”.
